Data reported in patent US6545148B2, “Process for preparing certain substituted caprolactams” (Novartis AG, priority 2001, dated 2003).

Assay: H2O solubility of the chromatographed white solid
Type: physicochemical
Details: white solid after chromatography (2% methanol-CH2Cl2), before preparative hplc purification
Experimental: To a stirred solution of trifluoroacetic acid (10 ml), tetrahydrofuran (10 ml) and water (5 ml) at 0° C. is added, in one portion, 3.8 g (7.1 mmol) of the compound prepared in a) above. The reaction is stirred at 0° C. for 30 minutes, concentrated via rotary evaporation (bath temperature <20° C), mixed with saturated NH4HCO3 (5 mL) and stirred for 15 minutes. […] This material is further purified using preparative hplc (reverse phase eluted with 90% CH3CN-water) to give 2.9 g (82.4%) of the title compound as a white solid, m.p. 79-80° C.

CO[C@@H](C(=O)N[C@H]1CC[C@@H](OC(=O)C2CCCCC2)CNC1=O)[C@H](O)[C@@H](O)[C@H](O)/C=C/C(C)(C)C [Example 3, (2R, 3R, 4S, 5R, 6E)-3,4,5-trihydroxy-2-methoxy-8,8-dimethyl-N-[(3S,6R) -hexahydro-2-oxo-6-(cyclohexylcorbonyl)oxy-2H-azepin-3-3-yl]non-6-enamide]
H2O solubility: 3700 µg/mL
